Experimental data reported in patent publication US20110319491A1, “ANHYDROUS DEPIGMENTING COMPOSITIONS COMPRISING, WITHIN THE FATTY PHASE THEREOF, A SOLUBILIZED PHENOLIC COMPOUND AND A RETINOID” (GALDERMA RESEARCH & DEVELOPMENT, priority 2009, published 2011).
Where two headings read alike, the source gives them in different places.

Experiments:
[1] = Stability of hydroquinone in solvent oils and lipophilic surfactants (HPLC assay, colour)
[2] = cited from earlier work
[3] = Chemical stability of the formulations (HPLC assay of the active agents); type: physicochemical; settings: in composition of Example 2
Protocol: The chemical stability is measured by assaying the active agents by external calibration in HPLC and the results are expressed as a % of […] relative to the theoretical value.

[4] = in Cremophor EL, 1 month, 40° C.
[5] = in Cremophor EL, 3 months, 40° C.
[6] = in Crodamol DA, 1 month, 40° C.
[7] = in Crodamol DA, 3 months, 40° C.
[8] = in Ethanol/water (20/80), 1 month, 40° C.
[9] = in Ethanol/water (20/80), 1 month, RT
[10] = in Ethanol/water (20/80), 3 months, 40° C.
[11] = in Ethanol/water (20/80), 3 months, RT
[12] = in Propylene glycol, 1 month, 40° C.
[13] = in Propylene glycol, 1 month, RT
[14] = in Propylene glycol, 3 months, 40° C.
[15] = in Propylene glycol, 3 months, RT

SMILES: Oc1ccc(O)cc1 [Hydroquinone, hydroquinone]
- % (HPLC assay, T0 = 100%) ([1]; in Arlamol E, 1 month, 40° C.): 95.5%
- Colour ([1]; in Arlamol E, 1 month, 40° C.): Colourless
- % (HPLC assay, T0 = 100%) ([1]; in Arlamol E, 1 month, RT): 95.9%
- Colour ([1]; in Arlamol E, 1 month, RT): Colourless
- % (HPLC assay, T0 = 100%) ([1]; in Arlamol E, 3 months, 40° C.): 96.0%
- Colour ([1]; in Arlamol E, 3 months, 40° C.): Colourless
- % (HPLC assay, T0 = 100%) ([1]; in Arlamol E, 3 months, RT): 95.9%
- Colour ([1]; in Arlamol E, 3 months, RT): Colourless
- % (HPLC assay, T0 = 100%) [1, 4]: 87.1%
- Colour [1, 4]: Brown
- % (HPLC assay, T0 = 100%) ([1]; in Cremophor EL, 1 month, RT): 91.4%
- Colour ([1]; in Cremophor EL, 1 month, RT): Orange
- % (HPLC assay, T0 = 100%) [1, 5]: 85.1%
- Colour [1, 5]: Brown++
- % (HPLC assay, T0 = 100%) ([1]; in Cremophor EL, 3 months, RT): 87%
- Colour ([1]; in Cremophor EL, 3 months, RT): Brown+
- Macroscopic stability of hydroquinone (in words) ([1]; in Cremophor EL, browning that becomes pronounced over time and with temperature): macroscopic instability
- Chemical and physical stability of hydroquinone (in words) ([1]; in Crodamol DA, Arlamol E and Labrasol): good chemical and physical stability
- % (HPLC assay, T0 = 100%) [1, 6]: 95.9%
- Colour [1, 6]: Colourless
- % (HPLC assay, T0 = 100%) ([1]; in Crodamol DA, 1 month, RT): 96.5%
- Colour ([1]; in Crodamol DA, 1 month, RT): Colourless
- % (HPLC assay, T0 = 100%) [1, 7]: 97.4%
- Colour [1, 7]: Colourless
- % (HPLC assay, T0 = 100%) ([1]; in Crodamol DA, 3 months, RT): 97.6%
- Colour ([1]; in Crodamol DA, 3 months, RT): Colourless
- % (HPLC assay, T0 = 100%) [1, 8]: 91.7%
- Colour [1, 8]: Dark pink
- % (HPLC assay, T0 = 100%) [1, 9]: 94.4%
- Colour [1, 9]: Orange
- % (HPLC assay, T0 = 100%) [1, 10]: 89.4%
- Colour [1, 10]: Brown
- % (HPLC assay, T0 = 100%) [1, 11]: 93.9%
- Colour [1, 11]: Orange
- % (HPLC assay, T0 = 100%) ([1]; in Glycerol, 1 month, 40° C.): 93.5%
- Colour ([1]; in Glycerol, 1 month, 40° C.): Dark yellow
- % (HPLC assay, T0 = 100%) ([1]; in Glycerol, 1 month, RT): 95.0%
- Colour ([1]; in Glycerol, 1 month, RT): Yellow
- % (HPLC assay, T0 = 100%) ([1]; in Glycerol, 3 months, 40° C.): 93.3%
- Colour ([1]; in Glycerol, 3 months, 40° C.): Orange
- % (HPLC assay, T0 = 100%) ([1]; in Glycerol, 3 months, RT): 93.0%
- Colour ([1]; in Glycerol, 3 months, RT): Pink
- % (HPLC assay, T0 = 100%) ([1]; in Labrasol, 1 month, 40° C.): 95.2%
- Colour ([1]; in Labrasol, 1 month, 40° C.): Colourless
- % (HPLC assay, T0 = 100%) ([1]; in Labrasol, 1 month, RT): 95.4%
- Colour ([1]; in Labrasol, 1 month, RT): Colourless
- % (HPLC assay, T0 = 100%) ([1]; in Labrasol, 3 months, 40° C.): 95.1%
- Colour ([1]; in Labrasol, 3 months, 40° C.): Colourless
- % (HPLC assay, T0 = 100%) ([1]; in Labrasol, 3 months, RT): 94.6%
- Colour ([1]; in Labrasol, 3 months, RT): Colourless
- % (HPLC assay, T0 = 100%) ([1]; in Miglyol, 1 month, 40° C.): 95%
- Colour ([1]; in Miglyol, 1 month, 40° C.): Colourless
- % (HPLC assay, T0 = 100%) ([1]; in Miglyol, 1 month, RT): 94.2%
- Colour ([1]; in Miglyol, 1 month, RT): Colourless
- % (HPLC assay, T0 = 100%) ([1]; in Miglyol, 3 months, 40° C.): 95%
- Colour ([1]; in Miglyol, 3 months, 40° C.): Colourless
- % (HPLC assay, T0 = 100%) ([1]; in Miglyol, 3 months, RT): 93.1%
- Colour ([1]; in Miglyol, 3 months, RT): Colourless
- % (HPLC assay, T0 = 100%) ([1]; in PEG 400, 1 month, 40° C.): 91.4%
- Colour ([1]; in PEG 400, 1 month, 40° C.): Orange
- % (HPLC assay, T0 = 100%) ([1]; in PEG 400, 1 month, RT): 93.4%
- Colour ([1]; in PEG 400, 1 month, RT): Pink
- % (HPLC assay, T0 = 100%) ([1]; in PEG 400, 3 months, 40° C.): 91.8%
- Colour ([1]; in PEG 400, 3 months, 40° C.): Brown
- % (HPLC assay, T0 = 100%) ([1]; in PEG 400, 3 months, RT): 89.0%
- Colour ([1]; in PEG 400, 3 months, RT): Brown
- % (HPLC assay, T0 = 100%) [1, 12]: 91.8%
- Colour [1, 12]: Yellow
- % (HPLC assay, T0 = 100%) [1, 13]: 97.0%
- Colour [1, 13]: Colourless
- % (HPLC assay, T0 = 100%) [1, 14]: 88.8%
- Colour [1, 14]: Dark yellow
- % (HPLC assay, T0 = 100%) [1, 15]: 94.2%
- Colour [1, 15]: Yellow
- Colour stability of hydroquinone (in words) ([1]; in solvents of the prior art such as glycols, RT and 40° C., absence of antioxidants): colouration is observed
- Max. solubility (w/w) (in Arlamol E): 11.9 w/w
- Max. solubility (w/w) (in Caprylic capric triglycerides): 1.7 w/w
- Max. solubility (w/w) (in Castor oil): 6.5 w/w
- Max. solubility (w/w) (in Cremophor EL): 27.9 w/w
- Solubility of hydroquinone (in words) (in Cremophor EL): high solubility
- Max. solubility (w/w) (in Crodamol DA): 10.7 w/w
- Max. solubility (w/w) (in Ethanol/water (20/80)): 17 w/w
- Max. solubility (w/w) (in Glycerol): 15.6 w/w
- Max. solubility (w/w) (in Labrasol): 28.9 w/w
- Max. solubility (w/w) (in Lauroglycol): 5.5 w/w
- Max. solubility (w/w) (in PEG 400): 19.8 w/w
- Max. solubility (w/w) (in Propylene glycol): 15.6 w/w
- Incidence of irritation ([2]; 2% hydroquinone concentration): virtually nonexistent
- Incidence of irritation ([2]; 10% hydroquinone concentration): relatively high
- Incidence of irritation ([2]; preparations with a 5% dose of hydroquinone): reduces greatly
- Chemical stability: hydroquinone assay, % relative to the theoretical value ([3]; 40° C., T + 1 M): 97.6%
- Chemical stability: hydroquinone assay, % relative to the theoretical value ([3]; 40° C., T + 2 M): 100.8%
- Chemical stability: hydroquinone assay, % relative to the theoretical value ([3]; 40° C., T + 3 M): 99.2%
- Chemical stability: hydroquinone assay, % relative to the theoretical value ([3]; 40° C., T + 6 M): 97.2%
- Chemical stability: hydroquinone assay, % relative to the theoretical value ([3]; RT, T + 1 M): 98.9%
- Chemical stability: hydroquinone assay, % relative to the theoretical value ([3]; RT, T + 2 M): 101.8%
- Chemical stability: hydroquinone assay, % relative to the theoretical value ([3]; RT, T + 3 M): 98.8%
- Chemical stability: hydroquinone assay, % relative to the theoretical value ([3]; RT, T + 6 M): 100.6%
